Experimental data taken from patent publication US4368194A, “Pharmacologically active amine boranes” (The United States of America as represented by the …, priority 1981, dated 1983).

How the values were obtained:
[1] = test system: carrageenan induced edema in mouse foot pads; experiment: Anti-inflammatory screen (carrageenan induced foot edema); assay type: in vivo, mice; conditions: 10 mg/kg × 2 intraperitoneally, mice
Experimental: CF1 male mice (about 30 g) were administered test drugs at 10 mg/kg in 0.05% polysorbate .80-water intraperitoneally 3 hr and 30 min prior to 0.05 ml of 2% carrageenan in 0.9% saline injected into the plantar surface of the right hind foot. Saline injected into the left hind foot served as a base line. After 3 hr, both feet were excised at the tibiotarsal (ankle) joint according to the modified (Roszkowski et al., J. Pharm. Exp. Ther., 179, 114 1971) method of Winter, resulting in an 87 mg net increase in the weight of the control animals' feet.

CF1 male mice = experiment: Writhing reflex (acetic acid); assay type: in vivo; conditions: 20 mg/kg intraperitoneally, mice
Experimental: CF1 male mice were administered test drugs at 20 mg/kg intraperitoneally 20 min (see Hendershat et al., J. Pharmacol Exp. Ther. 125, 237 1959) prior to the administration of 0.5 ml of 0.6% acetic acid (Vingar et al., European J. PHarmacol, 37, 23 1976). After 5 min the number of stretches, characterized by repeated contractures of the abdominal musculature accompanied by extension of the hind limbs, was counted for the next 10 min. The control mice had 78 stretch reflexes per 10 min.

Acid phosphatase [2] = experiment: Lysosomal free acid phosphatase activity, liver homogenate; assay type: biochemical, rats; conditions: 5 μmoles, in vitro; 20 min
Experimental: (§1) Lysosomal enzymatic assays - Sprague Dawley rats (about 160 g) were sacrificed, the liver excised, and a 10% homogenate (4x) in 0.25 M sucrose and 0.001 M (ethylenedinitrilo) tetra acetic acid, ph 7.2 was prepared.
(§2) Acid phosphatase activity (Gianetto et al., Biochem J., 59, 433 1955) was carried out by incubating with 0.1 Mβ-glycerol phosphate in 0.1 M acetate, pH 5.0 with 5 μmoles of test drugs in 1% carboxymethylcellulose (CMC) for 20 min with liver homogenate and 60 min with resuspended PMNs. Lysosome enzymes were released by 0.02% alkyl phenoxy polyethoxy ethanol-100 to obtain the total enzymatic activity. The reaction was stopped with 10% trichloroacetic acid and the solution centrifuged. Aliquots of the supernatant were assayed for inorganic phophate content by the method of Chen et al., Anal Chem., 28, 1756 (1956). Percent free acid phosphatase was calculated. Cathepsin activity was determined in an analagous manner except the substrate used was 2% azocasein (Schleuning et al., Methods in Enzymology, XLV, 330 1976) in 0.1 M acetate buffer pH 5.0. The supernatant was assayed for acid soluble peptide fragments at 366 nm. Percent free cathepsin activity was calculated.

Cathepsin [3] = experiment: Lysosomal free cathepsin activity, liver homogenate; assay type: biochemical, rats; conditions: 5 μmoles; for Liver % Free Cathepsin Activity, pH5: in vitro, 20 min
Experimental: as §1, §2

Acid phosphatase [4] = experiment: Lysosomal free acid phosphatase activity, PMNs; assay type: cell-based; conditions: 5 μmoles; for PMNs % Free Acid Phosphatase Activity, pH5: in vitro, 60 min
Experimental: (§3) Polymorphonuclear neutrophils (PMNs) were collected from the peritoneal cavity four hr after the injection of 35 ml of 0.5% oyster glycogen in isotonic saline (Orange et al., J. Exp. Med., 127, 767 1968). The PMNs were centrifuged down at 800 g for 20 min, washed, and resuspended in minumen essential medium (MEM) with 10% fetal calf serum pH 7.4.
as §2

Cathepsin [5] = experiment: Lysosomal free cathepsin activity, PMNs; assay type: cell-based; conditions: 5 μmoles; for PMNs % Free Cathespin Activity, pH5: in vitro, 60 min
Experimental: as §3, §2

cAMP levels in PMNs = experiment: Cyclic-3',5'-adenosine monophosphate levels (cAMP) in PMNs; assay type: cell-based; conditions: 1 h, 5 μmoles; for activity at 5 µmol: pH 7.4, in vitro, read-out: PMNs cAMP Level; for activation at 5 µmol: in vitro incubation, read-out: increase of cyclic adenosine monophosphate levels in PMNs
Experimental: as §3
Isolated PMNs were incubated with test drugs at 5μ moles for 1 hr at 37° C. in MEM at pH 7.4. The reaction was stopped with 6% trichloroacetic acid. The cyclic-3',5'-adenosine monophosphate levels were determined by the radioimmunoassay of Gilman, Proc. Natl. Acad. Sci. (USA), 67, 305 (1970), using 3H(G)-cyclic-3',5'-adenosine monophosphate (39.8 Cu/m mol). Results were calculated in p mole/10^7 PMNs cells.

[6] = molecular target: T1, prostaglandin synthetase from beef seminal vesicle (Bos taurus, UniProt O62664); experiment: Prostaglandin synthetase activity; assay type: biochemical; conditions: 10^-6 M; for inhibition at 1 µM: read-out: inhibition of prostaglandin synthesis; for activity at 1 µM: 1 h, read-out: Prostaglandin Synthesis
T1 construct: purchased; host or cells: beef seminal vesicle
T1 sequence (O62664 25-600): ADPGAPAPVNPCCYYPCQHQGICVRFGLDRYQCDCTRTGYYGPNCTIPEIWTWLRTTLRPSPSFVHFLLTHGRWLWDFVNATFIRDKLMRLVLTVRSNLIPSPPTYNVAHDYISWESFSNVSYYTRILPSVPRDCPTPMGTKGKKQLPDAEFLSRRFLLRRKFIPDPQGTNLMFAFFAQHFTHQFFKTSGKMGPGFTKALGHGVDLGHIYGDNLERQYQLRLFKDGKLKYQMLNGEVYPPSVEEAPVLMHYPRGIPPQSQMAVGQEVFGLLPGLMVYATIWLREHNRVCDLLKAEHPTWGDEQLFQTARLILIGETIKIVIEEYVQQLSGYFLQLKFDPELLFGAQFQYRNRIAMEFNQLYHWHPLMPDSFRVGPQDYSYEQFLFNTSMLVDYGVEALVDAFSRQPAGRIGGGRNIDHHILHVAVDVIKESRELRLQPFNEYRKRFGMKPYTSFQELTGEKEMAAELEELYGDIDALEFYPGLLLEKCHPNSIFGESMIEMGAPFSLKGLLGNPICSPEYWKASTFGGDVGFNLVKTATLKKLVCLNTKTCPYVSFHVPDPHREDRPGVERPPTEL
Experimental: After 1 hr at 37° C. the reaction was stopped with 1 N HCl and extracted with ethyl ether and evaporated. […] The plates were dried and developed in iodine vapor and with the use of prostaglandin standards the appropriate areas were scraped and counted for ^3 H content. Indometacin was used as a standard at 10^-4 M concentration. Test drugs were used at 10^-6 M.

liver mitochondria [7] = experiment: Oxidative phosphorylation, succinate as substrate; assay type: biochemical, rats; conditions: 5 μmoles; for Oxidative Phosphorylation Succinate State 3: ADP stimulated respiration; for Oxidative Phosphorylation Succinate State 4: basal respiration
Experimental: (§4) Basal and adenosine diphosphate stimulated respiration on 10% liver homogenates was measured using succinate or αketoglutarate as substrate. See Glatt, et al., supra. The reaction vessel contained sucrose 55μ moles, KCl 22μ moles, K2 HPO4 22μ moles, test compounds at 5μ moles in 1% CMC and sodium succinate 90μ moles or αketoglutarate 60μ moles in a total volume of 1.8 ml. […] The rate of respiration was calculated at μl of O2 consumed/hr/mg wet weight of liver.

liver mitochondria [8] = experiment: Oxidative phosphorylation, α-ketoglutarate as substrate; assay type: biochemical, rats; conditions: 5 μmoles; for Oxidative Phosphorylation α Ketoglutarate State 3: ADP stimulated respiration; for Oxidative Phosphorylation α Ketoglutarate State 4: basal respiration
Experimental: as §4

in vivo = conditions: mouse

With `[BH3-][N+](C)(C)C` [Compound III, (CH3)3 N.BH3] the “Anti-inflammatory Screen” value [1] was 65 % Control, the “Writhing Reflex” value (CF1 male mice) was 47 % Control and the “Liver % Free Acid Phosphatase Activity, pH5” value (Acid phosphatase [2]) was 72 ± 6 % Control. For the same compound, the “inhibition of free proteolytic cathepsin activity of liver” value (Cathepsin [3]) was “at least 75%”, the “Liver % Free Cathepsin Activity, pH5” value (Cathepsin [3]) was 17 ± 4 % Control and the “inhibition of free acid phosphatase activity in PMNs” value (Acid phosphatase [4]) was 43%. For the same compound, the “PMNs % Free Acid Phosphatase Activity, pH5” value (Acid phosphatase [4]) was 57 ± 4 % Control, the “inhibition of PMN cathepsin activity” value (Cathepsin [5]) was “at least 82%” and the “PMNs % Free Cathespin Activity, pH5” value (Cathepsin [5]) was 18 ± 3 % Control. The activity at 5 µmol (cAMP levels in PMNs) was 145%, the activation at 5 µmol (cAMP levels in PMNs) was 45% and the inhibition at 1 µM [6] was over 30%. For the same compound, the activity at 1 µM [6] was 61 ± 3%, the “Oxidative Phosphorylation Succinate State 3” value (liver mitochondria [7]) was 56 ± 12 % Control and the “Oxidative Phosphorylation Succinate State 4” value (liver mitochondria [7]) was 117 ± 11 % Control. For the same compound, the “both states 3 and 4 respiration with α-ketoglutarate” value (liver mitochondria [8]) was “inhibited”, the “Oxidative Phosphorylation α Ketoglutarate State 3” value (liver mitochondria [8]) was 28 ± 10 % Control and the “Oxidative Phosphorylation α Ketoglutarate State 4” value (liver mitochondria [8]) was 71 ± 8 % Control. It also gave an LD50 (in vivo) of 740 mg/kg.

For `[BH3-][NH+](C)C` [IV, (CH3)2 NH.BH3], the “Anti-inflammatory Screen” value [1] was 66 % Control, the “Writhing Reflex” value (CF1 male mice) was 37 % Control and the “Liver % Free Acid Phosphatase Activity, pH5” value (Acid phosphatase [2]) was 82 ± 3 % Control. The “Liver % Free Cathepsin Activity, pH5” value (Cathepsin [3]) was 67 ± 3 % Control, the “PMNs % Free Acid Phosphatase Activity, pH5” value (Acid phosphatase [4]) was 82 ± 6 % Control and the “PMNs % Free Cathespin Activity, pH5” value (Cathepsin [5]) was 65 ± 5 % Control. The activity at 5 µmol (cAMP levels in PMNs) was 80%, the activity at 1 µM [6] was 100 ± 5% and the “Oxidative Phosphorylation Succinate State 3” value (liver mitochondria [7]) was 82 ± 4 % Control. The “Oxidative Phosphorylation Succinate State 4” value (liver mitochondria [7]) was 119 ± 9 % Control, the “both states 3 and 4 respiration with α-ketoglutarate” value (liver mitochondria [8]) was “inhibited” and the “Oxidative Phosphorylation α Ketoglutarate State 3” value (liver mitochondria [8]) was 53 ± 16 % Control. For the same compound, the “Oxidative Phosphorylation α Ketoglutarate State 4” value (liver mitochondria [8]) was 67 ± 18 % Control and the LD50 (in vivo) was 200 mg/kg.

For `C[N+](C)(C)[BH2-]I` [IX, (CH3)3 N.BH 2 I], the “Anti-inflammatory Screen” value [1] was 66 % Control, the “Writhing Reflex” value (CF1 male mice) was 37 % Control and the “Liver % Free Acid Phosphatase Activity, pH5” value (Acid phosphatase [2]) was 71 ± 6 % Control. For the same compound, the “inhibition of free proteolytic cathepsin activity of liver” value (Cathepsin [3]) was “at least 75%”, the “Liver % Free Cathepsin Activity, pH5” value (Cathepsin [3]) was 14 ± 3 % Control and the “PMNs % Free Acid Phosphatase Activity, pH5” value (Acid phosphatase [4]) was 71 ± 5 % Control. For the same compound, the “PMNs % Free Cathespin Activity, pH5” value (Cathepsin [5]) was 40 ± 4 % Control, the activity at 5 µmol (cAMP levels in PMNs) was 133% and the activation at 5 µmol (cAMP levels in PMNs) was 33%. For the same compound, the inhibition at 1 µM [6] was over 30%, the activity at 1 µM [6] was 67 ± 5% and the “Oxidative Phosphorylation Succinate State 3” value (liver mitochondria [7]) was 63 ± 9 % Control. For the same compound, the “Oxidative Phosphorylation Succinate State 4” value (liver mitochondria [7]) was 120 ± 12 % Control, the “Oxidative Phosphorylation α Ketoglutarate State 3” value (liver mitochondria [8]) was 70 ± 13 % Control and the “Oxidative Phosphorylation α Ketoglutarate State 4” value (liver mitochondria [8]) was 102 ± 16 % Control. It also gave an LD50 (in vivo) of 250 mg/kg.
